Test results published in patent publication US5990094A, “Inhibitors of sorotonin N-acetyltransferase” (The Rockefeller University, priority 1998, dated 1999).
Where “and” joins values, the source holds several entries; their conditions need not be identical. Equal entries are not always repeated. Entries after “also recorded” stand apart in the source; their conditions may differ. Where two headings read alike, the source gives them in different places.

Experiments:
AANAT [1] = target: T1, AANAT (Ovis aries, UniProt Q29495); experiment: Tryptamine analogs as AANAT substrates, steady-state kinetic parameters
T1 sequence (Q29495 whole entry): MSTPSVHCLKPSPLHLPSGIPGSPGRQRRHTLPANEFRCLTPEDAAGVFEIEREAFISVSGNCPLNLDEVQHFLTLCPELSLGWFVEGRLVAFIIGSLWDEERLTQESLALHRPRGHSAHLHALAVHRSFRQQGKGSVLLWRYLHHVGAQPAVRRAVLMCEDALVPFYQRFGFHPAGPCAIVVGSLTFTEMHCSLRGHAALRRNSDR
Procedure: Expression of eukaryotic proteins in bacteria is unpredictable.
The enzymatic assays available for AANAT were direct, radioactive assays. […] Thus indirect methods to measure CoASH formation were tested.
The first objective of these studies was to determine the tolerance of alkyl chain length for substrate processing efficiency. […] Indole-propylamine (7.1) and indole-butylamines(7.2) are not commercially available and were prepared as shown (FIG. 7) (6l).
Another important selectivity issue was addressing the effects of a-methyl and Nw-methyl-substitutions of tryptamine analogs (FIG. 8) on AANAT catalysis. […] These compounds were obtained from commercial sources and tested as AANAT substrates. […] Using these compounds.

AANAT [2] = target: T1, AANAT; experiment: a-Trifluoromethyltryptamine tested as AANAT substrate and competitive inhibitor; assay type: biochemical, sheep; design: The entire open reading frame of the DNA encoding sheep AANAT in the plasmid vector pET15b; GST (glutathione S-transferase, thrombin-cleavable) (N); made in house; host or cells: Escherichia coli
Procedure: Expression of eukaryotic proteins in bacteria is unpredictable. Indeed, efforts to express the rat and human AANAT protein in E. coli have so far been unsuccessful. In contrast, the sheep enzyme which is 80% identical at the amino acid level to rat and human can be expressed in E. coli as a soluble protein (51). GST-AANAT can be obtained in approximately 90% purity with a yield of 5-10 mg/L of E. coli culture after purification with glutathione-agarose. Optimization of conditions for production of this fusion protein has led to the induction being carried out at 22-24° C. for 5-6 h after 0.2 mM IPTG to prevent inclusion body formation. The fusion protein can be concentrated to>6 mg/mL using an Amicon filter and appears to be stable for at least 6 months when stored at -80° C. in the presence of a thiol-reducing agent. […] Specific activity is also highly reproducible from batch to batch. Cleavage of the fusion protein with thrombin followed by repeat glutathione-affinity chromatography has afforded GST-free AANAT.
Quantitatively, the specific activity is essentially identical to the conventional radioactive assay. Importantly, there is no evidence of significant uncoupling of CoASH production and amide formation with any substrates (or non-substrates) tested.
Commercially available bromotrifluoromethyl ketone was converted to the oxime by reaction with hydroxylamine. The oxime was used to generate the vinyl nitroso derivative which was used in situ to react in a 4+2 cycloaddition and produce the 3-substituted indole. Reduction of this material with LiAlH4 led to generation of racemic a-trifluoromethyltryptamine. a-Trifluoromethyltryptamine was calculated to have a primary amine pKa of approximately 6. […] It is not clear from these studies if the lack of tight binding of a-trifluoromethyltryptamine represents steric or electronic repulsion of the fluorines offset by the tighter binding of the neutral amine function, or if a positively charged amine is the preferred state for binding to AANAT (65).

GST-AANAT [3] = target: T2, GST-AANAT (Ovis aries, UniProt Q29495); experiment: Two-substrate steady state kinetics with GST-AANAT; assay type: biochemical, sheep
T2 construct: The entire open reading frame of the DNA encoding sheep AANAT in the plasmid vector pET15b; made in house; host or cells: Escherichia coli BL21(DE3)pLysS
T2 sequence (Q29495 other isoform, or with tags, fused parts or gaps): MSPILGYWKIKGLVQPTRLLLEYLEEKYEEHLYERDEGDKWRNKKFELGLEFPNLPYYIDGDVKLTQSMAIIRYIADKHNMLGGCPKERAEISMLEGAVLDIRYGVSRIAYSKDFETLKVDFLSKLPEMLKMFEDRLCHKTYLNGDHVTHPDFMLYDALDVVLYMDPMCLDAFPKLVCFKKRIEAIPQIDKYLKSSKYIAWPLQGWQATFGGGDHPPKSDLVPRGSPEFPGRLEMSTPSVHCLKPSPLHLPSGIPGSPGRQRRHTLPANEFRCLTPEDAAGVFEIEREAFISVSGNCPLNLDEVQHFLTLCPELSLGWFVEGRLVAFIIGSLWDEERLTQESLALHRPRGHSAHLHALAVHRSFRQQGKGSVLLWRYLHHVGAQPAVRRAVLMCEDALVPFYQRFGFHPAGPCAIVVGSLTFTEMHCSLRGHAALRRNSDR
Procedure: (§1) DTNB Product Detection Assay
(§2) This assay is based on the detection of CoASH generated during acetyl transfer by reaction with the thiol reagent DTNB (19). […] Reactions were initiated with enzyme (3 μl, 5-30 nM final concentration) that had been prediluted (10-100 fold) in 50 mM sodium phosphate, 500 mM NaCl, 2 mM EDTA, and 0.05 mg/ml bovine serum albumin in the absence of reducing agent immediately before use and maintained on ice during the assay. The reactions were quenched for 0-3 min with 0.6 ml of a buffer containing guanidinium-HCl (3.2 M), sodium phosphate (0.1 M), pH 6.8. […] Background absorbances (with all components added including enzyme) were measured and subtracted from the total absorbance.
Two-Substrate Kinetic Measurements
Two substrate kinetic analysis was performed with substrate concentrations given in FIG. 3, and the data were fitted to the sequential (ternary complex) mechanism equation (Equation 2) using the computer program Kinet-Asyst II™ (IntelliKinetics, State College, Pa.) based on the algorithms of Cleland (20),
.upsilon.=Vm ·A·B/(Ka ·Kb
·Kma ·B+Kmb ·A+A·B)(Eq. 2)
(§3) using a nonlinear least squares approach.

GST-AANAT [4] = target: T2, GST-AANAT; experiment: Kinetic measurements with inhibitors of GST-AANAT; assay type: biochemical, sheep
Procedure: as §1
(§4) This assay is based on the detection of CoASH generated during acetyl transfer by reaction with the thiol reagent DTNB (19). […] Reactions were initiated with enzyme (3 μl, 5-30 nM final concentration) that had been prediluted (10-100 fold) in 50 mM sodium phosphate, 500 mM NaCl, 2 mM EDTA, and 0.05 mg/ml bovine serum albumin in the absence of reducing agent immediately before use and maintained on ice during the assay. The reactions were quenched for 0-3 min with 0.6 ml of a buffer containing guanidinium-HCl (3.2 M), sodium phosphate (0.1 M), pH 6.8. These mixtures were treated with 0.1 ml of DTNB (2 mM, 0.1 M sodium phosphate, pH 6.8, 10 mM EDTA), vortexed, and allowed to stand for 5 min before absorbance readings were performed at 412 nm (thiophenolate-quantified assuming ε=13.7×10^3 M^-1 cm^-1) (19). Background absorbances (with all components added including enzyme) were measured and subtracted from the total absorbance. […] The rate of conversion of acetyl-CoA to CoASH in the absence of amine was negligible over the course of the assay.
Kinetic Measurements with Inhibitors
.upsilon.=Vm ·S/Km (1+I/Kis) (Eq. 3) using a nonlinear least squares approach. The fixed substrate was assumed to be saturating.
.upsilon.=Vm ·S/[Km (1+I/Kis)+S(1+I/Kii)](Eq. […]
as §3
V=Vm ·S/[Km +S(1+I/Kii)] (Eq. 5)
The abbreviations are Kii =Ki intercept and Kis =Ki slope based on double-reciprocal plot analysis according to the nomenclature of Cleland (21). The data for individual experiments with each inhibitor versus a varied substrate were fit to all three inhibitor models. Choice of kinetic fit was based on a combination of visual inspection and comparison of S.E. values and residuals for all three inhibition types

AANAT [5] = target: T1, AANAT; experiment: Viscosity studies with sucrose as microviscogen; assay type: biochemical, sheep; design: The entire open reading frame of the DNA encoding sheep AANAT in the plasmid vector pET15b; GST (glutathione S-transferase, thrombin-cleavable) (N); made in house; host or cells: Escherichia coli; conditions: for slope of kcat-control/kcat-viscogen vs. relative viscosity: kcat effect (FIG. 10); for rate-determining step: viscosity studies
From the text: An important part of enzyme mechanistic analysis is to determine which step(s) is (are) rate-determining for the enzyme reaction. After the binding of the substrates to the enzyme, there are several potential rate-determining steps, the chemical step or one of the product release steps.
Viscosity effects can be useful for distinguishing product release steps from non-diffusional steps (66). The principle of using viscosity effects to study enzyme reaction kinetics is based on the fundamental inverse relationship between microviscosity and diffusional rates. Thus a linear increase in microviscosity caused by a microviscogen such as sucrose causes a linear decrease in the diffusion of small molecules. Since little diffusion is involved in the chemical step, this step is taken as viscosity-insensitive. However, viscogenic agents (which are used at rather high concentrations) can cause non-diffusion related effects by interacting with the enzyme or substrate. Controls for these non-diffusional effects must be carried out. […] Since poor substrates in general would be expected to have reduced kcat values because the rate of their chemical steps are reduced, any viscosity effects observed would be expected to be related to non-diffusional or "artifactual" effects.

GST-AANAT fusion = GST-AANAT fusion (Ovis aries, UniProt Q29495); experiment: DTNB product detection assay, apparent substrate kinetics with GST-AANAT
Sequence of GST-AANAT fusion (Q29495 whole entry, the tested form may be a part): as the sequence (Q29495 whole entry) above
Procedure: as §1, §2

GST-AANAT [6] = target: T2, GST-AANAT; experiment: Tryptophol tested as alternative substrate of GST-AANAT; assay type: biochemical, sheep; conditions: 1 mM tryptophol, 1 mM acetyl-CoA, up to 3 min
Procedure: as §1, §4
The structural analog to tryptamine in which the primary amine function is replaced by a hydroxyl function (tryptophol) (see FIG. 4) could theoretically be an alternative AANAT substrate.

[7] = varied substrate acetyl-CoA, tryptamine 0.2 mM (subsaturating)
[8] = varied substrate acetyl-CoA, tryptamine 0.2 mM, read-out: Ksi
[9] = varied substrate tryptamine, acetyl-CoA 1 mM
[10] = varied substrate tryptamine, acetyl-CoA 1 mM, read-out: Kis

CC(N)Cc1c[nH]c2ccccc12 (racemic) [a-methyltryptamine]
AANAT substrate (AANAT [1]): substrates
kcat and Km compared to tryptamine (AANAT [1]): significantly reduced kcat and Km compared to tryptamine

NC(Cc1c[nH]c2ccccc12)C(F)(F)F (racemic) [a-trifluoromethyltryptamine]
AANAT substrate (AANAT [2]): not detectably an AANAT substrate
Ki (AANAT [2]; competitive inhibitor): 3000 ± 1000 µM
AANAT substrate (AANAT [2]; listed as Ya-Trifluoromethyltryptamine): not to be a substrate

CC(=O)SCCNC(=O)CCNC(=O)[C@H](O)C(C)(C)COP(=O)(O)OP(=O)(O)OC[C@H]1O[C@@H](n2cnc3c(N)ncnc32)[C@H](O)[C@@H]1OP(=O)(O)O [Acetyl-CoA, acetyl-CoA]
Kd (GST-AANAT [3]; ordered sequential mechanism, read-out: Kin (dissociation constant of the first binding substrate)): 509 ± 156 µM
Kd (GST-AANAT [3]; read-out: dissociation constant (Kd)): 510 µM

CCNC(=O)CCNC(=O)[C@H](O)C(C)(C)COP(=O)(O)OP(=O)(O)OC[C@H]1O[C@@H](n2cnc3c(N)ncnc32)[C@H](O)[C@@H]1OP(=O)(O)O [Desulfo-CoA, desulfo-CoA]
Ki (GST-AANAT [4]; quoted in discussion, read-out: K1): 1000 µM
Kis relative to dissociation constant of acetyl-CoA (GST-AANAT [4]; saturating tryptamine): 2 fold
Inhibitor pattern (GST-AANAT [4]; varied substrate acetyl-CoA, tryptamine 1 mM): linear competitive inhibitor
Inhibitor pattern (GST-AANAT [4]; varied substrate acetyl-CoA, tryptamine 1 mM, listed as desulfo-CoA): linear competitive
Ki (GST-AANAT [4]; varied substrate acetyl-CoA, tryptamine 1 mM, read-out: Kis): 1020 µM and 1000 µM
Inhibitor pattern (GST-AANAT [4]; varied substrate tryptamine, acetyl-CoA 0.2 mM): noncompetitive inhibitor
Inhibitor pattern (GST-AANAT [4]; varied substrate tryptamine, acetyl-CoA 0.2 mM, listed as desulfo-CoA): linear noncompetitive
Ki (GST-AANAT [4]; varied substrate tryptamine, acetyl-CoA 0.2 mM, read-out: Kis): 1340 ± 450 µM
Ki (GST-AANAT [4]; varied substrate tryptamine, acetyl-CoA 0.2 mM, read-out: Ksi): 1490 ± 230 µM

CC(=O)NCCc1c[nH]c2ccccc12 [N-Acetyltryptamine, N-acetyltryptamine]
Inhibitor pattern (GST-AANAT [4]; [7]): uncompetitive
Inhibitor pattern (GST-AANAT [4]; varied substrate acetyl-CoA, tryptamine 0.2 mM (subsaturating), listed as N-acetyltryptamine): uncompetitive inhibitor
Ki (GST-AANAT [4]; [8]): 331 ± 23 µM
Inhibitor pattern (GST-AANAT [4]; [9]): noncompetitive
Inhibitor pattern (GST-AANAT [4]; varied substrate tryptamine, acetyl-CoA 1 mM, listed as N-acetyltryptamine): noncompetitive inhibitor; also recorded: linear noncompetitive
Ki (GST-AANAT [4]; [10]): 205 ± 29 µM
Ki (GST-AANAT [4]; varied substrate tryptamine, acetyl-CoA 1 mM, read-out: Ksi): 916 ± 160 µM

CNCCc1c[nH]c2ccccc12 [Nw-methyltryptamine]
AANAT substrate (AANAT [1]): substrates
kcat and Km compared to tryptamine (AANAT [1]): significantly reduced kcat and Km compared to tryptamine; also recorded: substantially reduced kcat compared to tryptamine
slope of kcat-control/kcat-viscogen vs. relative viscosity (AANAT [5]; sucrose): +0.16±0.03
slope of kcat/Km control/viscogen vs. relative viscosity (AANAT [5]; sucrose, kcat/Km effect): -0.14±0.03
rate-determining step (AANAT [5]): the chemical step is rate-determining

NCCc1c[nH]c2ccc(O)cc12 [Serotonin, 5-hydroxytryptamine]
kcat (AANAT [1]; Table 1, tryptamine analogs): 34 ± 1 s⁻¹
kcat(app) (GST-AANAT fusion; 1 mM (near saturating) concentration of the fixed substrate): 34 ± 2 s⁻¹
kcat(app) and Km(app) compared with tryptamine (GST-AANAT fusion; serotonin vs tryptamine): nearly indistinguishable from those obtained with tryptamine

NCCc1c[nH]c2ccccc12 [Tryptamine, tryptamine]
slope of kcat-control/kcat-viscogen vs. relative viscosity (AANAT [5]; sucrose): +0.75±0.08
rate-determining step (AANAT [5]): product release (or a conformational change associated with product release) is largely rate-determining

OCCc1c[nH]c2ccccc12 [Tryptophol, tryptophol]
Inhibitor pattern (GST-AANAT [4]; [7]): uncompetitive
Inhibitor pattern (GST-AANAT [4]; varied substrate acetyl-CoA, tryptamine 0.2 mM (subsaturating), listed as trypochol): linear uncompetitive
Inhibitor pattern (GST-AANAT [4]; varied substrate acetyl-CoA, tryptamine 0.2 mM (subsaturating), listed as tryptophol): uncompetitive inhibitor
Ki (GST-AANAT [4]; [8]): 1360 ± 120 µM
Inhibitor pattern (GST-AANAT [4]; [9]): competitive
Inhibitor pattern (GST-AANAT [4]; varied substrate tryptamine, acetyl-CoA 1 mM, listed as tryptophol): linear competitive inhibitor
Ki (GST-AANAT [4]; [10]): 680 ± 78 µM
Kis relative to Kii in a noncompetitive fit (GST-AANAT [4]; versus acetyl-CoA): more than 10 times
acetyl transfer (alternative substrate) (GST-AANAT [6]): prevents enzyme-catalyzed acetyl transfer; also recorded: not an alternative substrate
acetylation efficiency relative to tryptamine, fold less (GST-AANAT [6]): at least 400 fold
acetyl transfer (alternative substrate) (GST-AANAT [6]; listed as tryptophol): no detectable transfer took place; also recorded: not a substrate
